Measurements: patent publication US20220315890A1, “NERVE CELL AND APPLICATION THEREOF” (FUJIFILM Corporation, priority 2021, published 2022)

How the values were obtained:
[1] = system: hiPSC-derived nerve cells overexpressing tau (1N4R); experiment: Nerve cell death / cell survival by CellTiter Glo assay after overexpression of tau; type: cell-based, human; conditions: compound added at replating, 2 days before lentivirus infection, cultured about 7 days, FIG. 8
Description: (§1) Frozen nerve cells were thawed in a hot water bath and plated on a 96-well plate at the number of cells of about 3×10^4 cells/well or on a 12-well plate at about 30×10^4 cells/well, where the plates had been coated with poly-D-lysine (PDL) and iMatrix (Nippi, Incorporated), in a neural replating medium containing DOX (a medium obtained by adding 2% of a B27 Plus supplement, 1% of a Culture One supplement, 200 μmol/L of dbcAMP, 200 μmol/L of L-ascorbic acid, and 2 μg/mL of DOX to a Neurobasal plus:DMEM/F12 HAM=1:1 medium). In addition, 1 μmol/L of Tau Accell siRNA (Dharmacon, Inc., #A-012488-13) described in (7) below or a compound described in (9) below was added thereto. After the culture in a CO2 incubator at 37° C. for 2 days, the cells were […] and cultured for about 7 days, and then various evaluations were carried out.
The decrease in cell survival rate due to overexpression of tau according to the method (4) was confirmed by the CellTiter Glo assay (Promega Corporation). It was confirmed that about 20% to 90% of nerve cell death occurred due to overexpression of tau depending on the amount of lentivirus.
According to the method (4), the drug efficacy of methylene blue and isoproterenol, which had been reported to have an inhibitory action on tau aggregation in nerve cells after the overexpression of tau, and a microtubule stabilizer epothilone D was evaluated. The cytoprotective action of the compound was measured by a CellTiter Glo assay. The effect on tau aggregation was quantified by standardizing the Tau oligomer antibody-positive protrusion length in the neurite obtained by fluorescent staining with the 4R tau antibody-positive protrusion length.

[2] = target: T1, tau aggregation in hiPSC-derived nerve cells overexpressing tau (1N4R) (Homo sapiens, UniProt P10636); experiment: Tau aggregation: Tau oligomer antibody (T22)-positive protrusion length standardized with 4R tau antibody-positive protrusion length; type: cell-based; conditions: at the compound concentration at which a cytoprotective action was exhibited; fluorescent staining; FIG. 8
T1 construct: expressed in transfected cells; host or cells: human iPS cell-derived nerve cells (Ngn2 / miR-9/9*-124 induced), transduced with CSII-TRE-hTau (1N4R)-IRES-Zeo lentivirus, DOX-induced
Description: as §1
The nerve cells after the overexpression of tau according to the method (4) were subjected to fluorescent staining using a tau oligomer antibody (T22) (Merck Millipore).
The cytoprotective action of the compound was measured by a CellTiter Glo assay. The effect on tau aggregation was quantified by standardizing the Tau oligomer antibody-positive protrusion length in the neurite obtained by fluorescent staining with the 4R tau antibody-positive protrusion length.

T1 sequence (P10636 1-412 isoform P10636-7): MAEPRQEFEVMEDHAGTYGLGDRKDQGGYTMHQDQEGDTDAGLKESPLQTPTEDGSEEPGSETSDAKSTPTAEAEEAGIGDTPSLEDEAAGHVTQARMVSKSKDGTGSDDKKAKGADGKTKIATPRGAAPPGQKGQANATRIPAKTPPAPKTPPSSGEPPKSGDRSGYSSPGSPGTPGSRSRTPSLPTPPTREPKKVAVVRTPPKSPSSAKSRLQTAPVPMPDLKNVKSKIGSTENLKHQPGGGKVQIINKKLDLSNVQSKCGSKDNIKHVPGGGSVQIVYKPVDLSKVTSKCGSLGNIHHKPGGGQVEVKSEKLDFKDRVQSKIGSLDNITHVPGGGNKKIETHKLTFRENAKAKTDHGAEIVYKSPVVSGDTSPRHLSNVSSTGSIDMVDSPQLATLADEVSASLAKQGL

| Structure (SMILES) | cytoprotective action (CellTiter Glo assay) [1] | effect on tau aggregation (tau polymerization) [2] |
| --- | --- | --- |
| C/C1=C/C[C@@H](/C(C)=C/c2csc(C)n2)OC(=O)C[C@H](O)C(C)(C)C(=O)[C@H](C)[C@@H](O)[C@@H](C)CCC1 [epothilone D] | partial cytoprotective action | not changed |
| CC(C)NCC(O)c1ccc(O)c(O)c1 (stereo not drawn) [isoproterenol] | partial cytoprotective action | partial inhibitory action on tau aggregation |
| CN(C)c1ccc2nc3ccc(=[N+](C)C)cc-3sc2c1 [methylene blue] | partial cytoprotective action | partial inhibitory action on tau aggregation |
